Twelve compounds from the SangsterLogP compilation can be followed below.

Structures are written as SMILES.

One may read the logP as the decadic logarithm of the partition coefficient of the neutral form, usually between octanol and water. The low end stands for a more hydrophilic compound, the high end for a more lipophilic compound. Compound `COc1nc(Sc2c([N+](=O)[O-])ncn2C)c2c(ncn2C)n1` yielded a logP of 1.45. `Cn1cnc([N+](=O)[O-])c1Sc1nc(=O)[nH]c2ncn(C)c12` displayed a logP of 1.12. The compound `Cn1cnc([N+](=O)[O-])c1Sc1nc2ncn(C)c2c(=S)[nH]1` displayed a logP of 1.26. In turn, `Cn1cnc([N+](=O)[O-])c1Sc1nc(Sc2c([N+](=O)[O-])ncn2C)c2c(ncn2C)n1` displayed a logP of 1.68.

Compound `C=CCSc1nc(Sc2c([N+](=O)[O-])ncn2C)c2c(ncn2C)n1` registered a lipophilicity (logP) of 2.43. For the compound `Cn1cnc([N+](=O)[O-])c1Sc1nc(=S)[nH]c2ncn(C)c12`, the logP was 1.19. Then `CN1C=NC([N+](=O)[O-])C1Sc1nc2ncn(C)c2c(=O)[nH]1` (configuration not stated), with 1.21; and `CSc1nc(Sc2c([N+](=O)[O-])ncn2C)c2c(ncn2C)n1`, with 1.6; and `Cn1cnc([N+](=O)[O-])c1Sc1nc(Cl)nc2ncn(C)c12`, with 1.5. With `Cn1cnc([N+](=O)[O-])c1Sc1nc(OCc2ccccc2)nc2ncn(C)c12`, the logP was determined as 2.67. `C=CCOc1nc(Sc2c([N+](=O)[O-])ncn2C)c2c(ncn2C)n1`: the logP stood at 2.02. In the case of `Cn1cnc([N+](=O)[O-])c1Sc1nc(SCc2ccccc2)nc2ncn(C)c12`, the logP was 2.91.
